Assay [1] has as its target BCL-2 (binding to BAD peptide) (Homo sapiens, UniProt P10415). The experiment in a line: SPR (Biacore) solution inhibition assay, BCL-2 binding to immobilized BAD peptide. The note with it: biotinylated BAD peptide surface, 56 nM BCL-2, 25° C.; range = high and low IC50 values from multiple experiments; read-out: BCL2_SPR IC50 BAD. The text has this:
(§1) The present method includes utility of a Surface plasmon resonance (SPR)-based biosensor (Biacore™′ GE Healthcare, Uppsala, Sweden) to characterize BCL-2 inhibitors.
(§2) Biacore™ utilizes the phenomenon of surface plasmon resonance (SPR) to detect and measure binding interactions. In a typical Biacore experiment, one of the interacting molecules (ligand) is immobilized on a flexible dextran matrix while the interacting partner (analyte) is allowed to flow across that surface. A binding interaction results in an increase in mass on the sensor surface and a corresponding direct change in the refractive index of the medium in the vicinity of the sensor surface. Changes in refractive index or signal are recorded in resonance units (R.U.) Signal changes due to association and dissociation of complexes are monitored in a non-invasive manner, continuously and in real-time, the results of which are reported in the form of a sensorgram.
(§3) The SPR assay is configured to examine solution inhibition of BCL-2 binding to peptide derivatized sensor surfaces to generate IC50 values as a measure of inhibitor potency.
(§4) Biacore™ A100 (GE Healthcare, Uppsala, Sweden) was used to conduct all experiments reported herein. Sensor surface preparation and all interaction analyses experiments were performed at 25° C. Reagents were purchased from GE Healthcare. Running buffer containing 10 mM Hepes, pH7.4, 150 mM sodium chloride, 1.25 mM Dithiothreitol, 3% Dimethyl sulfoxide and 0.05% polysorbate 20 were utilized throughout all analyses.
(§5) Biotinylated BAK, BAD and NOXA peptides were diluted to 10 nM in running buffer and captured onto a sensor surface pre-derivatized with streptavidin (sensor chip SA) to peptide surface densities in the range 50-100 R.U. Peptide captured surfaces were blocked with 500 μM PEO2-Biotin.
(§6) Interaction analyses were performed by first equilibrating each sample within a 6 point three fold compound dilution series in the range 16 μM to […] with 56 nM BCL-2 for one hour during instrument start-up procedures. Protein compound mixtures were then injected over each peptide surface in parallel for 60 seconds at a flow-rate of 30 μL/min. 56 nM BCL-2 control samples were also prepared and run at regular intervals during the assay. Surface regeneration was performed at the end of each analysis cycle by two 30 second injections of 10 mM Glycine, pH 2.5, 1M Sodium Chloride, 0.05% polysorbate 20. Samples and control compound samples were run in duplicate and controls are also run at regular intervals during the assay to monitor surface and assay performance.
(§7) Data analyses are carried out using Biacore™ A100 evaluation software v1.1 to validate assay quality. Binding level report points were used relative to BCL-2 control samples to calculate % inhibition values for each compound protein mixture. […] The range of data shown in table 1 represents the high and low IC50 values obtained from multiple experiments.

For assay [2], the target named is BCL-2 (binding to BAK peptide) (Homo sapiens, UniProt P10415). The experiment in a line: SPR (Biacore) solution inhibition assay, BCL-2 binding to immobilized BAK peptide. The note with it: biotinylated BAK peptide surface, 56 nM BCL-2, 25° C.; range = high and low IC50 values from multiple experiments; read-out: BCL2_SPR IC50 BAK.
Description: as §1, §2, §3, §4, §5, §6, §7
(Surface plasmon resonance follows binding to a sensor surface in real time, without labels.)

Values joined by “and” are separate entries in the source; they are usually repeats but may differ in a detail not shown here. Identical values can stand only once.

BCL-2 (binding to BAK peptide), sequence (P10415 whole entry): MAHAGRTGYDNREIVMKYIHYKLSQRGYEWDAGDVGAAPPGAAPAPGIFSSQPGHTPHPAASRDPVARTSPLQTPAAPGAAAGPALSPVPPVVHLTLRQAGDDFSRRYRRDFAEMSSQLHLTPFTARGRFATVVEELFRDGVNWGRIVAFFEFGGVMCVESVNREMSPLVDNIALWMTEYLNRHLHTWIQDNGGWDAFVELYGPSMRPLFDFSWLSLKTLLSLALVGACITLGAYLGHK
BCL-2 (binding to BAD peptide), sequence (P10415 whole entry): as above

In general, IC50 refers to the concentration that gives 50% inhibition. On to `CCCCN(CCCC)C(=O)c1cc(C)n(-c2ccc(NC(=O)c3ccc4c(c3)nnn4C(C)C)cc2C(=O)N2Cc3ccccc3C[C@H]2CO)n1` [Example 147], for which the IC50 lay in the range of 306 to 381 nM in assay [1] and 298 to 315 nM in assay [2].
With `CCCCN(CCCC)C(=O)c1cc(C)n(-c2ccc(NC(=O)Cc3ccc(OC)c(F)c3)cc2C(=O)N2Cc3ccccc3C[C@H]2CO)n1` [Example 97], the concentration for half-maximal inhibition (IC50) in assay [1] is 201 to 210 nM; in assay [2], 146 to 168 nM.
Turning to `CCCCN(CCCC)C(=O)c1cc(C)n(-c2ccc(NC(=O)C(CC(=O)OCC)c3ccccc3)cc2C(=O)N2Cc3ccccc3C[C@H]2CO)n1` (stereo partly shown) [Example 53], the IC50 in assay [1] is 181 to 187 nM; in assay [2], 162 nM.
For the molecule `CCCCN(CCCC)C(=O)c1cc(C)n(-c2ccc(NC(=O)C3CC(=O)N(Cc4ccc(F)cc4)C3)cc2C(=O)N2Cc3ccccc3C[C@H]2CO)n1` (stereo partly shown) [Example 50], the IC50 lay within 702 to 723 nM in assay [1] and 554 to 643 nM in assay [2].
With `CCCCN(CCCC)C(=O)c1cc(C)n(-c2ccc(NC(=O)C3CC(=O)N(c4ccc(OCC)cc4)C3)cc2C(=O)N2Cc3ccccc3C[C@H]2CO)n1` (stereo partly shown) [Example 115], the results for the IC50 in assay [1] and in assay [2] were 180 to 204 nM and 153 to 154 nM, respectively.
Turning to `CCCCN(CCCC)C(=O)c1cc(C)n(-c2ccc(NC(=O)C(CCO)c3ccccc3)cc2C(=O)N2Cc3ccccc3C[C@H]2CO)n1` (stereo partly shown) [Example 105], the 50% inhibitory concentration (IC50) lay within 114 to 119 nM in assay [1] and 89.4 to 94.3 nM in assay [2].
`CCCCN(CCCC)C(=O)c1cc(C)n(-c2ccc(NC(=O)c3oc(C)nc3C)cc2C(=O)N2Cc3ccccc3C[C@H]2CO)n1` [Example 108]: the concentration for half-maximal inhibition (IC50) in assay [1] is 1020 to 1120 nM and 691 to 730 nM; in assay [2], 629 to 841 nM and 429 to 430 nM.
As for `CCCCN(CCCC)C(=O)c1cc(C)n(-c2ccc(NC(=O)C(Cc3ccccc3)C(=O)O)cc2C(=O)N2Cc3ccccc3C[C@H]2CO)n1` (stereo partly shown) [Example 34], the IC50 in assay [1] was 67.6 to 67.8 nM; in assay [2], 63.4 to 72.2 nM.
As to `CCCCN(CCCC)C(=O)c1cc(C)n(-c2ccc(NC(=O)c3sccc3C)cc2C(=O)N2Cc3ccccc3C[C@H]2CO)n1` [Example 81], the half-inhibitory concentration (IC50) in assay [1] lay in the range of 1420 to 1460 nM; in assay [2] it was 1040 to 1490 nM.
For the molecule `CCCCN(CCCC)C(=O)c1cc(C)n(-c2ccc(NC(=O)C(C)c3ccc4ccccc4c3)cc2C(=O)N2Cc3ccccc3C[C@H]2CO)n1` (stereo partly shown) [Example 114], the IC50 was 61.9 to 73.1 nM and 64.1 to 72.9 nM and 51 to 54.5 nM in assay [1]; 57.2 to 59.9 nM and 58.3 to 62 nM and 52.4 to 53.4 nM in assay [2].
With `CCCCN(CCCC)C(=O)c1cc(C)n(-c2ccc(NC(=O)COc3cc(Cl)c(Cl)cc3Cl)cc2C(=O)N2Cc3ccccc3C[C@H]2CO)n1` [Example 127], the half-inhibitory concentration (IC50) in assay [1] fell in the range of 131 to 138 nM; in assay [2], 106 to 108 nM.
As for `CCCCN(CCCC)C(=O)c1cc(C)n(-c2ccc(NC(=O)COc3ccc([N+](=O)[O-])cc3)cc2C(=O)N2Cc3ccccc3C[C@H]2CO)n1` [Example 21], the 50% inhibitory concentration (IC50) in assay [1] is 2390 to 2670 nM; in assay [2], 1950 to 2170 nM.
`CCCCN(CCCC)C(=O)c1cc(C)n(-c2ccc(NC(=O)COc3ccc(Cl)cc3)cc2C(=O)N2Cc3ccccc3C[C@H]2CO)n1` [Example 7]: the values for the IC50 in assay [1] and in assay [2] were 198 nM and 142 to 161 nM, respectively.
For the molecule `CCCCN(CCCC)C(=O)c1cc(C)n(-c2ccc(NC(=O)OC)cc2C(=O)N2Cc3ccccc3C[C@H]2CO)n1` [Example 12], the results for the IC50 in assay [1] and in assay [2] were 619 to 892 nM and 567 to 575 nM, respectively.
Take `CCCCN(CCCC)C(=O)c1cc(C)n(-c2ccc(NC(=O)c3ccc(COC)o3)cc2C(=O)N2Cc3ccccc3C[C@H]2CO)n1` [Example 142]: the IC50 in assay [1] is 1130 to 1300 nM; in assay [2], 935 to 1120 nM.
For `CCCCN(CCCC)C(=O)c1cc(C)n(-c2ccc(NC(=O)CCc3cn4cccnc4n3)cc2C(=O)N2Cc3ccccc3C[C@H]2CO)n1` [Example 79], the IC50 was in the range of 369 to 398 nM in assay [1] and 299 to 351 nM in assay [2].
For `CCCCN(CCCC)C(=O)c1cc(C)n(-c2ccc(NC(=O)Cc3ccc(OC)c(C)c3)cc2C(=O)N2Cc3ccccc3C[C@H]2CO)n1` [Example 95], the half-inhibitory concentration (IC50) lay within 148 to 155 nM in assay [1] and 107 to 108 nM in assay [2].
Turning to `CCCCN(CCCC)C(=O)c1cc(C)n(-c2ccc(NC(=O)c3oc4ccccc4c3C)cc2C(=O)N2Cc3ccccc3C[C@H]2CO)n1` [Example 80], the IC50 was 908 to 1110 nM in assay [1] and 1030 to 1070 nM in assay [2].
`CCCCC(CCCC)C(=O)c1cc(C)n(-c2ccc(NC(=O)COc3ccc(N4CCCC4=O)cc3)cc2C(=O)N2Cc3ccccc3C[C@H]2CO)n1` [Example 48]: the IC50 in assay [1] lay within 846 to 870 nM; in assay [2], 581 to 600 nM.
As to `CCCCN(CCCC)C(=O)c1cc(C)n(-c2ccc(NC(=O)CCc3c[nH]c4c(Cl)cccc34)cc2C(=O)N2Cc3ccccc3C[C@H]2CO)n1` [Example 124], the IC50 in assay [1] is 254 to 260 nM; in assay [2] it was 215 to 235 nM.
As to `CCCCN(CCCC)C(=O)c1cc(C)n(-c2ccc(NC(=O)Cc3ccc(OC)c(Br)c3)cc2C(=O)N2Cc3ccccc3C[C@H]2CO)n1` [Example 131], the half-inhibitory concentration (IC50) in assay [1] lay in the range of 27.8 to 36.6 nM; in assay [2], 23.3 to 30.8 nM.
As for `CCCCN(CCCC)C(=O)c1cc(C)n(-c2ccc(NC(=O)C(CC(=O)NC)c3ccccc3)cc2C(=O)N2Cc3ccccc3C[C@H]2CO)n1` (stereo partly shown) [Example 55], the IC50 fell in the range of 100 to 129 nM in assay [1] and 81 to 110 nM in assay [2].
As for `CCCCN(CCCC)C(=O)c1cc(C)n(-c2ccc(NC(=O)Cc3ccc(F)cc3)cc2C(=O)N2Cc3ccccc3C[C@H]2CO)n1` [Example 98], the 50% inhibitory concentration (IC50) in assay [1] lay in the range of 302 to 306 nM; in assay [2] it was 244 to 267 nM.
For `CCCCN(CCCC)C(=O)c1cc(C)n(-c2ccc(NC(=O)c3ccc(OC(F)(F)F)cc3)cc2C(=O)N2Cc3ccccc3C[C@H]2CO)n1` [Example 93], the concentration for half-maximal inhibition (IC50) is 1850 to 1900 nM in assay [1] and 1770 to 1830 nM in assay [2].
For `CCCCN(CCCC)C(=O)c1cc(C)n(-c2ccc(NC(=O)COc3ccc(OCc4ccccc4)cc3)cc2C(=O)N2Cc3ccccc3C[C@H]2CO)n1` [Example 20], the figures for the half-inhibitory concentration (IC50) in assay [1] and in assay [2] were 1220 to 1810 nM and 1220 to 2070 nM, respectively.
For `CCCCN(CCCC)C(=O)c1cc(C)n(-c2ccc(NC(=O)C(CC(=O)O)c3ccccc3)cc2C(=O)N2Cc3ccccc3C[C@H]2CO)n1` (stereo partly drawn) [Example 2, 4-((4-(3-(dibutylcarbamoyl)-5-methyl-1H-pyrazol-1-yl)-3-((S)-3-(hydroxymethyl)-1,2,3,4-tetrahydroisoquinoline-2-carbonyl)phenyl)amino)-4-oxo-3-phenylbutanoic acid] the same measures were 30.3 to 53.6 nM and 27.5 to 44.8 nM.
For `CCCCC(CCCC)C(=O)c1cc(C)n(-c2ccc(NC(=O)COc3cccc4ccccc34)cc2C(=O)N2Cc3ccccc3C[C@H]2CO)n1` [Example 110] the same measures were 273 to 318 nM and 250 to 272 nM.
For `CCCCN(CCCC)C(=O)c1cc(C)n(-c2ccc(NC(=O)COc3ccc(C(C)C)cc3)cc2C(=O)N2Cc3ccccc3C[C@H]2CO)n1` [Example 18] the same measures were 192 to 252 nM and 185 to 265 nM.
Take `CCCCN(CCCC)C(=O)c1cc(C)n(-c2ccc(NC(=O)CCC(=O)O)cc2C(=O)N2Cc3ccccc3C[C@H]2CO)n1` [Example 17]: the concentration for half-maximal inhibition (IC50) in assay [1] lay in the range of 216 to 250 nM; in assay [2], 153 to 175 nM.
For the molecule `CCCCN(CCCC)C(=O)c1cc(C)n(-c2ccc(NC(=O)CS(=O)(=O)c3ccccc3)cc2C(=O)N2Cc3ccccc3C[C@H]2CO)n1` [Example 152], the half-maximal inhibitory concentration (IC50) in assay [1] lay within 348 to 392 nM; in assay [2], 339 to 358 nM.
With `CCCCN(CCCC)C(=O)c1cc(C)n(-c2ccc(NC(C)=O)cc2C(=O)N2Cc3ccccc3C[C@H]2CO)n1` [Example 13], the half-inhibitory concentration (IC50) is 776 to 791 nM in assay [1] and 462 to 478 nM in assay [2].
For `CCCCN(CCCC)C(=O)c1cc(C)n(-c2ccc(NC(=O)Cc3cccnc3)cc2C(=O)N2Cc3ccccc3C[C@H]2CO)n1` [Example 118] the same measures were 164 to 171 nM and 139 to 153 nM.
The matching figures for `CCCCN(CCCC)C(=O)c1cc(C)n(-c2ccc(NC(=O)c3cc(-c4cccc(O)c4)[nH]n3)cc2C(=O)N2Cc3ccccc3C[C@H]2CO)n1` [Example 134]: 918 to 958 nM and 739 to 881 nM.
Regarding `CCCCN(CCCC)C(=O)c1cc(C)n(-c2ccc(NC(=O)C(C)CC(=O)O)cc2C(=O)N2Cc3ccccc3C[C@H]2CO)n1` (stereo partly shown) [Example 100], the IC50 in assay [1] fell in the range of 172 to 174 nM; in assay [2], 127 to 129 nM.
On to `CCCCN(CCCC)C(=O)c1cc(C)n(-c2ccc(NC(=O)C(C)c3noc4ccccc34)cc2C(=O)N2Cc3ccccc3C[C@H]2CO)n1` (stereo partly shown) [Example 161], for which the IC50 in assay [1] is 3070 to 3910 nM; in assay [2], 1330 to 1560 nM.

These data come from patent US20140357633A1, “COMPOUNDS FOR INHIBITING THE INTERACTION OF BCL2 WITH BINDING PARTNERS” (NOVARTIS AG, priority 2011, published 2014).
